Among the data in ChEMBL document CHEMBL3217681, “Phosphofructokinase: structural and functional aspects and design of selective inhibitors” (Medchemcomm, 2012) are IC50 values, retold here.

This assay deals with T1, ATP-dependent 6-phosphofructokinase (Trypanosoma brucei, UniProt O15648).
T1 sequence (O15648 whole entry): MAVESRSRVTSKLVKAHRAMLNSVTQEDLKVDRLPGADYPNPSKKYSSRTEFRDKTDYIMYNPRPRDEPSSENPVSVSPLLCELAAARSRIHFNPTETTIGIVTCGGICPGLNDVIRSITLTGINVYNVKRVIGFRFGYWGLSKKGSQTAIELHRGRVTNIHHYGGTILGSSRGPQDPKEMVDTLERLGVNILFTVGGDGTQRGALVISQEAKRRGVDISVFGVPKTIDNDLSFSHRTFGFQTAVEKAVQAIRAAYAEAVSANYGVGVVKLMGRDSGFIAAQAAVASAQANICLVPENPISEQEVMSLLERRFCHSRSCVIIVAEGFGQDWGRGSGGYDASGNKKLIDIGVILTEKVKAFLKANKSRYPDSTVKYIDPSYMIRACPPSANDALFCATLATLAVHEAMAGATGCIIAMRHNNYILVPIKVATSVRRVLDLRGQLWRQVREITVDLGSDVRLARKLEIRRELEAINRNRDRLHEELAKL
The assay is described as follows: Inhibition of Trypanosoma brucei phosphofructokinase.

In general, IC50 refers to the point on the concentration scale where inhibition reaches its midpoint. `OC[C@H]1O[C@H](CNc2ccc3ccccc3c2)[C@@H](O)[C@@H]1O` had an IC50 of 900 µM.
`OC[C@H]1O[C@H](CNc2ccc(Cl)c(Cl)c2)[C@@H](O)[C@@H]1O` returned an IC50 of 410 µM.
